In brackets after ≈: the same amount, converted by molar mass. Where two headings read alike, the source gives them in different places. Residues, ends and D or L forms follow the SMILES beside them. *: point of attachment. Hexanoyl = CCCCCC(=O)*
Key:
E. coli = details: E. coli
rabbit erythrocytes = details: AMPs 100 μM, 1 hour 37 °C, pos. 10% Triton X-100, neg. PBS, 3 x 2 replicates
From the text: (§1) Cytotoxicity studies are important during characterization of novel compounds or materials intended for interactions within human biological systems in vivo. Evaluation of the extent to which the compound induces disruption of the membrane of erythrocytes (red blood cells), thereby causing release of cellular content, often constitutes an initial step in such cytotoxicity assessments. The assay used in this context is generally referred to as the hemolysis assay, which has the advantages of being cheap, accessible, and simple to perform. Blood is drawn from a human or an animal, and next, the washed erythrocytes are incubated together with the compound or material under investigation. If the compound causes hemolysis, hemoglobin (along with other cellular constituents) will be released into the supernatant.
(§2) Blood from mice, rats, and rabbits was provided by the Department of Comparative Medicine at Oslo University Hospital (Marianne Aannestad). For mice and rats, the blood was collected from the heart by using 25 G and 21 G needles, respectively, whereas for rabbits, the blood was collected by free bleed through the ear using a yellow neoflon (24 G). All animals were wild type and anesthetized prior to the procedure.
(§3) All blood was collected in Lithium Heparin tubes 4 mL (Greiner Bio-One, Kremsmünster, Austria) or Coagulation sodium citrate 3.2% tubes 3 mL (Greiner Bio-One).
(§4) AMP 2 contained an N-terminal hexanoic acid moiety, whereas all peptides contained amidated C-termini. These three peptides were synthesized by Genscript Inc. (Piscataway, NJ, USA), and stock solutions of 1 mg/mL were made from the purchased powders. […] All peptides were diluted to yield a 100 μM final concentration in the hemolysis assays.
(§5) Triton X-100 (T8787) and Tween-20 (P2287) detergents were purchased from Sigma Aldrich and diluted to obtain 10% stock solutions by weighing (w/v). A sodium Dodecyl Sulfate (SDS) 10% solution was purchased from Invitrogen (Waltham, MA, USA, 15553027). All subsequent dilutions annotated in figures were made from these stocks.
(§6) As soon as possible after phlebotomy, the blood samples were centrifuged at 1700× g for 5 min. The supernatant was removed by aspiration and 2 mL of PBS pH 7 was added. The washing step was repeated three times or until the supernatant was clear. After final aspiration, the remaining pellet was diluted 1:100 in PBS pH 7 to obtain a 1% erythrocyte suspension (or 1:100, 1:50, and 1:20 for assays testing the effect of erythrocyte concentration). For experiments using whole blood, the washing steps were not performed, but downstream experimentation was identical. For experiments performed with 96-well plates, 50 μL of test compound, water, or detergent were mixed with 50 μL of blood sample (1% erythrocyte suspension or whole blood). For experiments using larger volumes, 250 μL of test compound, water, or detergent were mixed with 250 μL blood sample in an Eppendorf tube. Samples were subsequently incubated at 37 °C for 60 min (or 15, 30, 60, 90, or 120 min for assays evaluating the effect of incubation time). After incubation, the plates/tubes were centrifuged at 1700× g for 5 min, and then 50 μL of the supernatants were transferred to transparent, flat-bottom 96-well plates (Anicrin, A013418). Finally, absorption was measured at 405, 530, and 570 nm in a Victor Nivo Multimode microplate reader (Perkin Elmer, Waltham, MA, USA).

rabbit whole blood = details: for Hemolysis ratio: rabbit whole blood, AMPs 100 μM, 1 hour 37 °C, 3 x 2 replicates
From the text: as §1, §2, §3, §4, §5, §6

rat erythrocytes = details: AMPs 100 μM, 1 hour 37 °C, pos. 10% Triton X-100, neg. PBS, 3 x 2 replicates
From the text: as §1, §2, §3, §4, §5, §6

mouse erythrocytes = details: AMPs 100 μM, 1 hour 37 °C, pos. 10% Triton X-100, neg. PBS, 3 x 2 replicates
From the text: as §1, §2, §3, §4, §5, §6

[1] = tested on: washed human erythrocytes; experiment: Hemolysis assay, washed human erythrocytes
human whole blood = details: for Calculated hemolysis ratio: human whole blood, peptides 100 μM, 60 min 37 °C, neg. PBS, 3 x 2 replicates
[2] = tested on: washed human erythrocytes; experiment: Flow cytometry of treated erythrocytes with live/dead amine-reactive stain; type: cell-based; details: washed human erythrocytes treated 60 minutes, AMPs 100 μM, amine-reactive dye 488, flow cytometry 533/30 nm
Method: Briefly, a 1% washed erythrocyte solution was diluted to ~10^5 cells/mL and 0.4% Trypan blue (1:1 ratio) was added before 10 μL of the stained cell suspension was added to the Countess cell counting chamber slide. After a 30 s incubation, the slide was inserted into the instrument for automatic cell counting.
The Countess II automated cell counter (see above) was used to adjust the negative control sample to ~10^5 cells/mL and to subsequently dilute all samples by the same factor. Then, 0.5 μL of live/dead amine-reactive dye 488 (Fisher Scientific, Waltham, MA, USA) was added to 0.5 mL cell suspension and incubated for 30 min protected from light. Subsequently, the samples were washed twice with PBS pH 7 containing 1% bovine serum albumin (BSA), and finally resuspended in PBS pH 7 with 1% BSA. Cells were next counted, and the fluorescence measured using the 533/30 nm filter in an Accuri C6 flow cytometer (BD Biosciences, Franklin Lakes, NJ, USA).

CCCCCC(=O)N[C@@H](CCSC)C(=O)N[C@@H](CCCCN)C(=O)N[C@@H](CCCNC(=N)N)C(=O)N[C@@H](CCCCN)C(=O)N[C@@H](CCCCN)C(=O)N[C@@H](CCCCN)C(=O)N[C@H](C(=O)N[C@@H](CC(C)C)C(=O)N[C@H](C(=O)N[C@@H](CCCCN)C(=O)N[C@@H](CCCCN)C(=O)N[C@H](C(=O)N[C@@H](CC(C)C)C(=O)N[C@@H](CCCCN)C(=O)N[C@@H](CC(C)C)C(=O)N[C@@H](CCCCN)C(=O)N[C@@H](CO)C(=O)N[C@@H](CO)C(=O)N[C@@H](C)C(=O)N[C@@H](Cc1ccc(O)cc1)C(N)=O)C(C)C)[C@@H](C)CC)[C@@H](C)CC [AMP 2] (Hexanoyl-MKRKKKILIKKVLKLKSSAY-NH2)
Minimum inhibitory concentration (E. coli) (E. coli): 4 µM (≈ 10 µg/mL)
Hemolysis ratio (rabbit erythrocytes; Table S4: washed rabbit erythrocytes, OD 405 nm): 4.6 +/- 0.7%
Hemolysis ratio (rabbit erythrocytes; washed rabbit erythrocytes, OD 530 nm): 1.7 +/- 3.6%
Hemolysis ratio (rabbit erythrocytes; washed rabbit erythrocytes, OD 570 nm): 2.2 +/- 1.4%
Fold decrease of hemolytic effect in rabbit whole blood vs washed rabbit erythrocytes (rabbit whole blood; cf. Tables S3 and S4, 100 μM): 23 fold
Hemolysis ratio (rabbit whole blood; OD 405 nm, neg. PBS): 0.6 +/- 3.2%
Hemolysis ratio (rabbit whole blood; OD 530 nm, pos. 10% SDS, neg. PBS): 0.2 +/- 0.6%
Hemolysis ratio (rabbit whole blood; OD 570 nm, pos. 10% Triton X-100, neg. PBS): 0.2 +/- 0.5%
Hemolysis ratio (rat erythrocytes; Table S4: washed rat erythrocytes, OD 405 nm): 5.2 +/- 1.9%
Hemolysis ratio (rat erythrocytes; washed rat erythrocytes, OD 530 nm): 2.6 +/- 5.7%
Hemolysis ratio (rat erythrocytes; washed rat erythrocytes, OD 570 nm): 3.3 +/- 3%
Hemolysis ratio (mouse erythrocytes; Table S4: washed mouse erythrocytes, OD 405 nm): 0.1 +/- 2%
Hemolysis ratio (mouse erythrocytes; washed mouse erythrocytes, OD 530 nm): -11.8 +/- 8%
Hemolysis ratio (mouse erythrocytes; washed mouse erythrocytes, OD 570 nm): -2.7 +/- 1.9%
Calculated hemolysis ratio ([1]; 1% washed human erythrocytes, OD 530 nm, peptides 100 μM, 60 min 37 °C, pos. 10% Triton X-100, neg. PBS, 3 x 2 replicates): 5.2 ± 3%
Calculated hemolysis ratio ([1]; 1% washed human erythrocytes, OD 570 nm, peptides 100 μM, 60 min 37 °C, pos. 10% Triton X-100, neg. PBS, 3 x 2 replicates): 4.8 ± 6.6%
Calculated Hemolysis (%) ([1]; 2% pooled human erythrocytes, AMPs 100 µM, 60 min 37 °C, 405 nm, pos. 10% Triton X-100, neg. PBS, 3 x 2 replicates): 5.6 ± 0.8%
Calculated Hemolysis (%) ([1]; 5% pooled human erythrocytes, AMPs 100 µM, 60 min 37 °C, 405 nm, pos. 10% Triton X-100, neg. PBS, 3 x 2 replicates): 5.0 ± 3.3%
Calculated hemolysis ratio ([1]; Table 1: 1% human erythrocytes, 100 µM, 60 min 37 °C, OD 405 nm, pos. 10% Triton X-100, neg. PBS, mean ± SD, 3 experimental x 2 technical replicates): 8.5 ± 1.4%
Calculated hemolysis ratio ([1]; Table 2: pooled blood from all 10 individuals, 1% erythrocytes, AMPs 100 µM, 60 min 37 °C, 405 nm, pos. 10% Triton X, neg. PBS, 3 x 2 replicates): 12.4 ± 3.1%
Calculated Hemolysis (%) ([1]; Table 3: 1% pooled human erythrocytes, AMPs 100 µM, 60 min 37 °C, 405 nm, pos. 10% Triton X-100, neg. PBS, 3 x 2 replicates): 12.4 ± 3.1%
Calculated hemolysis ratio ([1]; Table 4: incubation 60 min, 37 °C, 1% human erythrocytes, AMPs 100 µM, 405 nm, pos. 10% Triton X-100, neg. PBS, 3 biological x 2 technical replicates): 7.8 ± 1.3%
Calculated hemolysis ratio ([1]; Table 6: 1% washed human erythrocytes, OD 405 nm, peptides 100 μM, 60 min 37 °C, pos. 10% Triton X-100, neg. PBS, 3 x 2 replicates): 8.2 ± 1.4%
Calculated hemolysis ratio ([1]; human individual # 1, 1% erythrocytes, AMPs 100 µM, 60 min 37 °C, 405 nm, pos. 10% Triton X, neg. PBS, 3 x 2 replicates): 8.2 ± 1.3%
Calculated hemolysis ratio ([1]; human individual # 2, 1% erythrocytes, AMPs 100 µM, 60 min 37 °C, 405 nm, pos. 10% Triton X, neg. PBS, 3 x 2 replicates): 10 ± 0.7%
Calculated hemolysis ratio ([1]; human individual # 3, 1% erythrocytes, AMPs 100 µM, 60 min 37 °C, 405 nm, pos. 10% Triton X, neg. PBS, 3 x 2 replicates): 9.8 ± 0.8%
Calculated hemolysis ratio ([1]; human individual # 4, 1% erythrocytes, AMPs 100 µM, 60 min 37 °C, 405 nm, pos. 10% Triton X, neg. PBS, 3 x 2 replicates): 10.4 ± 0.9%
Calculated hemolysis ratio ([1]; human individual # 5, 1% erythrocytes, AMPs 100 µM, 60 min 37 °C, 405 nm, pos. 10% Triton X, neg. PBS, 3 x 2 replicates): 11 ± 1%
Calculated hemolysis ratio ([1]; human individual # 6, 1% erythrocytes, AMPs 100 µM, 60 min 37 °C, 405 nm, pos. 10% Triton X, neg. PBS, 3 x 2 replicates): 6.4 ± 0.7%
Calculated hemolysis ratio ([1]; human individual # 7, 1% erythrocytes, AMPs 100 µM, 60 min 37 °C, 405 nm, pos. 10% Triton X, neg. PBS, 3 x 2 replicates): 8.9 ± 0.8%
Calculated hemolysis ratio ([1]; human individual # 8, 1% erythrocytes, AMPs 100 µM, 60 min 37 °C, 405 nm, pos. 10% Triton X, neg. PBS, 3 x 2 replicates): 9.1 ± 1.1%
Calculated hemolysis ratio ([1]; human individual # 9, 1% erythrocytes, AMPs 100 µM, 60 min 37 °C, 405 nm, pos. 10% Triton X, neg. PBS, 3 x 2 replicates): 9.6 ± 1%
Calculated hemolysis ratio ([1]; human individual # 10, 1% erythrocytes, AMPs 100 µM, 60 min 37 °C, 405 nm, pos. 10% Triton X, neg. PBS, 3 x 2 replicates): 9.8 ± 0.7%
Calculated hemolysis ratio ([1]; incubated in polypropylene tubes, 1% washed human erythrocytes, peptides 100 μM, 60 min 37 °C, 405 nm, pos. 10% Triton X-100, neg. PBS, 3 x 2 replicates): 8.2 ± 2.6%
Calculated hemolysis ratio ([1]; incubated in polystyrene tubes, 1% washed human erythrocytes, peptides 100 μM, 60 min 37 °C, 405 nm, pos. 10% Triton X-100, neg. PBS, 3 x 2 replicates): 9.7 ± 3.4%
Calculated hemolysis ratio ([1]; incubation 15 min, 37 °C, 1% human erythrocytes, AMPs 100 µM, 405 nm, pos. 10% Triton X-100, neg. PBS, 3 biological x 2 technical replicates): 7.8 ± 1.1%
Calculated hemolysis ratio ([1]; incubation 30 min, 37 °C, 1% human erythrocytes, AMPs 100 µM, 405 nm, pos. 10% Triton X-100, neg. PBS, 3 biological x 2 technical replicates): 7.4 ± 1.2%
Calculated hemolysis ratio ([1]; incubation 90 min, 37 °C, 1% human erythrocytes, AMPs 100 µM, 405 nm, pos. 10% Triton X-100, neg. PBS, 3 biological x 2 technical replicates): 8 ± 0.8%
Calculated hemolysis ratio ([1]; incubation 120 min, 37 °C, 1% human erythrocytes, AMPs 100 µM, 405 nm, pos. 10% Triton X-100, neg. PBS, 3 biological x 2 technical replicates): 8.6 ± 1.4%
Observed hemolytic properties (qualitative) ([1]; reason for choice of the AMPs): low
Calculated hemolysis ratio ([1]; total incubation volume 100 μL, 1% washed human erythrocytes, peptides 100 μM, 60 min 37 °C, 405 nm, pos. 10% Triton X-100, neg. PBS, 3 x 2 replicates): 9.7 ± 3.4%
Calculated hemolysis ratio ([1]; total incubation volume 500 μL, 1% washed human erythrocytes, peptides 100 μM, 60 min 37 °C, 405 nm, pos. 10% Triton X-100, neg. PBS, 3 x 2 replicates): 8.8 ± 3.9%
Calculated hemolysis ratio (human whole blood; OD 405 nm (signal saturated), pos. 10% SDS): 0.4 ± 0.2%
Calculated hemolysis ratio (human whole blood; OD 530 nm, pos. 10% SDS): 0.2%
Calculated hemolysis ratio (human whole blood; OD 570 nm, pos. 10% Triton X-100 (table title; text says 10% SDS)): −0.1%
Fold reduction in HR in human whole blood in comparison with washed erythrocytes measured at 405 nm (human whole blood; whole blood HR with 10% SDS as positive control (Table 5) vs washed erythrocytes (Table 6), 100 μM): > 41 fold
Fluorescence intensity per cell of remaining intact cells (live/dead stain) [2]: low fluorescence

Reference: article PMC9917735, “Optimization of the Hemolysis Assay for the Assessment of Cytotoxicity” (International Journal of Molecular Sciences, 2023)
